Data taken from EP0063827A1, “1-Isopropyl- and 1-isobutyl-3,7-dimethyl xanthine as pharmaceutical preparations” (SOCIETE DES PRODUITS NESTLE S.A., priority 1980, dated 1980).

Key:
[1] = system: anxiété induite par un nouvel environnement; experiment: Behavioural study in rats: locomotion and rearing counts under anxiety induced by a new environment; assay type: in vivo, rat; details: for profil d'action: conclusion in words from the behavioural study in the rat; for d/r: ratio of slope of déplacements to slope of redressements, specificity of effect on anxiety
Source text: La 1-isopropyl- et la l-isobutyl-3,7-diméthylxan- thine ont fait l'objet d'une étude comportementale chez le rat en fonction de l'anxiété induite par un nouvel environnement. Chez le rat, l'anxiété se manifeste par des redressements de celui-ci sur ses deux pattes postérieures, tandis que ses déplacements sont l'expression de l'activité locomotrice.
• - L'induction d'un état d'anxiété s'effectue par confrontation de rats mâles "naïfs" Sprague-Dawley (Iffa-Credo, France), pesant 260 à 300 g avec un nouvel environnement constitué par des cages en Macrolon ^0 (30 x 25 cm) qui se situent dans une chambre insonorisée et climatisée (22°C et 50 % d'humidité relative). • - La détermination du nombre de redressements et de déplacements a lieu de façon automatique à partir de cellules photo-électriques à infrarouge qui n'émettent des impulsions électriques que pour les mouvements francs de l'animal et pas pour les mouvements statiques comme ceux de la tête et de la queue et ceci pour des raisons de reproductibilité. Ces cellules photo-électriques quadrillent les cages à deux niveaux différents de façon à distinguer les redressements des déplacements. Le nombre de redressements et de déplacements est compté par les deux séries de cellules photo-électriques, mémorisé et restitué sur une imprimante selon un programme préétabli. • - On administre oralement par intubation oesophagienne le composé testé en solution, l'administration de référence étant constituée par 6 ml/kg d'eau distillée, et ceci 30 minutes avant de placer les animaux dans les cages. Le nombre de redressements et de déplacements est déterminé durant les 15 minutes qui suivent la mise en cage, par rapport à l'effet engendré par l'administration de référence.
• - Le tableau I ci-après montre l'évolution des effets des substances testées sur le nombre de déplacements et de redressements en fonction des doses administrées exprimé en pourcentage des déplacements et redressements comptés pour l'administration de référence. [formula] • - A partir des données précédentes, on établit les droites de régression pour les déplacements et les redressements selon la méthode décrite par Saubrié, P.J. Pharmacol, (Paris) 2 (1971) 457-472, l'équation de ces droites de régression correspondant à la moyenne exprimée en % des performances des références en fonction produit par 10 du logarithme des doses (on ne considère que les doses ne diminuant pas l'activité motrice de plus de 75 %). • - La comparaison des pentes des droites de régression correspondant aux déplacements et aux redressements est effectuée en portant sur un système d'axes orthonormés en abscisse (d) la valeur de la pente de la droite des déplacements et en ordonnée (r) celle de la pente des redressements. Ces valeurs mettent en évidence la relation effet-dose pour une substance donnée. • - On détermine également le rapport de la pente des déplacements sur celle des redressements qui permet de juger de la spécificité d'effet d'une substance donnée sur l'anxiété.
La détermination de l'effet d'une substance est donnée par sa localisation par rapport à la droite d = r de pente = 1. Les substances situées sur cette droite ont un effet semblable sur les redressements et les déplacements. Les substances pour lesquelles la valeur absolue de la pente des redressements est significativement supérieure à celle des déplacements ont une action spécifique sur l'anxiété.

[2] = system: enflement de l'oreille chez la souris; experiment: Delayed cutaneous hypersensitivity test (oxazolone), inhibition of ear swelling; assay type: in vivo; details: for % d'inhibition de l'enflement d'oreille: dose 150 mg/kg de poids corporel, ear thickness 24 h after challenge, relative to control
Experimental: L'activité immunosuppressante a été comparée à celle du cyclophosphamide, médicament immunosuppressant connu, comme inhibiteur de l'enflement de l'oreille chez la souris en réponse à l'agression antigénique dans un test d'hypersensibilisation cutanée retard à la dose de 150 mg/kg.
Le test a été conduit par exemple comme décrit par G.L. Asherson et W. Ptak dans Immunology 15, 405 (1968). Des souris ont été immunisées par application cutanée abdominale de 0,1 ml d'une solution à 3 % d'oxazolone. 7 jours après la sensibilisation, les animaux ont été provoqués par peinture de la même solution sur la peau de l'oreille. On a administré simultanément soit le composé ci-dessus soit le cyclophosphamide à une partie des animaux, les animaux restants servant de contrôle. 24 heures après l'agression, on a mesuré l'épaisseur de l'oreille. L'activité immunosuppressante exprimée en % de l'inhibition de l'enflement de l'oreille par rapport au contrôle est indiquée ci-après : […]

Row | SMILES | profil d'action [1] | d/r [1] | % d'inhibition de l'enflement d'oreille [2] [%] | further results
1 | CC(C)Cn1c(=O)c2c(ncn2C)n(C)c1=O [1-isobutyl-3,7-diméthylxanthine] | sédatif non spécifique |  |  | profil d'action ([1]; listed as l-isobutyl-3,7-diméthylxanthine): effet sédatif comparable à celui d'un neuroleptique type
2 | CC(C)n1c(=O)c2c(ncn2C)n(C)c1=O [1-isopropyl-3,7-diméthylxanthine] |  | < 1 |  | 
3 | CNC1=Nc2ccc(Cl)cc2C(c2ccccc2)=[N+]([O-])C1 [chlordiazépoxide, reference compound] |  | < 1 |  | 
4 | O=P1(N(CCCl)CCCl)NCCCO1 (stereo not drawn) [cyclophosphamide, reference compound] |  |  | 73 | 
5 | Cn1cnc2c1c(=O)n(Cn1c(=O)c3c(ncn3C)n(C)c1=O)c(=O)n2C [di(3,7-diméthylxanthin-1-yl)méthane] |  |  | 55 | activité immunosuppressante ([2]; result in words): a montré une activité immunosuppressante
6 | Cn1c(=O)c2[nH]cnc2n(C)c1=O [théophylline, reference compound] | psychostimulante et n'a pas d'effet sur l'anxiété | > 1 |  | 
